In article PMC6271122, “Effects of Fructus Psoraleae Extract on the Intestinal Absorption Kinetics of Geniposide and Geniposidic Acid in Rat” (Molecules, 2014):
Read-outs that look alike come from different tables or passages of the source.

What was measured:
[1] = In situ intestinal perfusion of rat duodenum (UPLC of perfusate); type: in vivo; settings: for Cumulative Absorption Rate (%) 1 h (mean ± SD) / Cumulative Absorption Rate (%) 3 h (mean ± SD): rat duodenum, n = 6
Experimental: All animal experimental procedures were in compliance with the National Institutes of Health Guide for Care and Use of Laboratory Animals. The in situ intestinal perfusion experiment was performed by using male Sprague-Dawley rats (240 ± 20 g) which obtained from Beijing Vital River Laboratory Animal Technology Co., Ltd. (SCXK 2012-0001, Beijing, China). Animals were fasted overnight (12 h) with free access to water before being allocated to different experimental groups at random. After the abdominal cavity was opened, an intestinal loop (length, 10 cm) was made by cannulation with silicone tube (i.d., 3 mm) at the duodenum which was selected 1 cm away from pylorus. The intestinal contents were removed by infusion of normal saline solution. The 25 mL perfusion solution was precisely measured and stored in the measuring cylinder. At the start of the experiment, the perfusion solutions perfused through the intestinal segment at a flow rate of 5 mL/min for 10 min by using a peristaltic pump (Petro Gas Ausrüstungen, Berlin, Germany). On reaching a steady state, changed the flow rate to 2.5 mL/min, and the intestinal perfusion samples (150 µL × 3) were collected at 30 min intervals for the duration of 3 h (0, 0.5, 1, 1.5, 2, 2.5, 3 h) with a pipette and put into shell tube. After each collection, the volumes (V1) of the perfusion solutions were recorded precisely and 450 µL blank K-R solution was added into the perfusion solution to keep the volume of the perfusion solution constant. After 3 h, the intestinal perfusion solution in peristaltic pump and the duodenum was exhausted, the volume of which was recorded as V2. All the samples were assayed by UPLC after preparation. Finally, the curves of time and the residual quantities (lnx) of GP and GPA in intestinal solution during the absorption in the duodenum for 3 h were obtained (Figure 2).The residual quantities of GP and GPA in the perfusion solution were calculated using the following equation: Xn = CnVn + 0.45 [drawing 1] , Xn is the residual quantities of GP or GPA in intestinal solution, Ci and Cn is the concentration of the GP or GPA, Vn is the volume of the intestinal perfusion solution (Vn = V1 + V2). Cumulative absorption rates were compared for 1 h and 3 h between the single and compatibility groups. The equation was as follows: 1 h/3 h cumulative absorption rate [drawing 2] .
Samples were prepared using a protein precipitation method at a volume ratio of 1:1 (v/v). The perfusion sample (150 µL) was mixed with CH3OH (150 µL), and then vortexed for 1 min. After 10 min for the precipitation, pure water (160 µL) was added to 40 µL of the above mixture. Then the sample was vortexed for 1 min and centr ifuged at 14,000 rpm for 10 min. The supernatant was directly used for UPLC analysis.
After sample preparation, 3 µL of the supernatant was injected into the UPLC system, and separated on a Waters BEH C18 column (2.1 × 50 mm, 1.7 µm). The column temperature was set at 25 °C. The mobile phase was consisted of water with 0.2% acetic acid (A) and acetonitrile (B) at a flow rate of 0.35 mL/min. The mobile phase operated in the following gradient for GP: 0–3 min: 15%–50% B, 3–3.5 min: 50%–90% B, 3.5–4 min: 90%–50% B, 4–5 min: 50%–15% B; GPA: 0–1 min: 5%–10% B, 1–2 min: 10%–20% B, 2–3 min: 20%–50% B, 3–4 min: 50%–10% B, 4–5 min: 10%–5% B. The detection wavelength was 254 nm.

[2] = system: β-D-glucosidase of a human intestinal anaerobe, Eubacterium sp.A-44; settings: cited from earlier work
[3] = Stability in K-R solution; type: physicochemical; settings: 24 h, room temperature; for Stability, RSD (%): K-R solution, concentrations at 0-24 h compared
Experimental: GP and GPA were stable in K-R solution at room temperature for 24 h. The concentrations at 0, 1, 2, 3, 5, 6, 8, 10 and 24 h were determined and compared.
All the components were dissolved in the K-R solution to imitate the physiological conditions of the intestinal tract. K-R nutrient solution included: NaCl 7.8 g, KCl 0.35 g, CaCl2 0.37 g, NaHCO3 1.37 g, NaH2PO4 0.02 g, MgCl2 0.02 g, glucose 2.22 g. They were dissolved in distilled water to 1000 mL.

[4] = cited from earlier work
[5] = system: β-D-glucosidase in rat liver homogenate; parameters: method as in PMID 7735197; settings: cited from earlier work
[6] = Effect of physical adsorption of the peristaltic pump; type: physicochemical; settings: for Physical Adsorption RSD (%): original vs 3 h concentration, 37 °C; for Concentration (mg/L) 3 h: perfusion solution after 3 h in water bath at 37 °C, compared with original concentration
Experimental: The perfusion solutions with known drug concentrations were incubated for 3 h in a water bath at 37 °C. The concentrations of GP and GPA in the resulting solution were determined and compared with the original concentrations.

[7] = Stability in blank intestinal perfusion solution; type: physicochemical; settings: 3 h, 50 mg/L; for Stability in blank intestinal perfusion solution: 37 °C; for Stability, RSD (%): Blank intestinal perfusion solution, 37 °C water bath, concentrations at 0, 0.25, 0.5, 1, 2 and 3 h compared
Experimental: A total of 50 mg/L GP and GPA perfusion solution (dissolved in blank intestinal perfusion solution) was incubated in a water bath at 37 °C for 3 h. The concentrations at 0, 0.25, 0.5, 1, 2 and 3 h were determined and compared.
The blank intestinal perfusion solution was prepared by a process consistent with the in situ intestinal perfusion experiment (as follows) except for the vacancy of GP or other components in the K-R solution.

NO production = system: NO production; parameters: method as in PMID 22181069; settings: protection from renal injury; cited from earlier work
[8] = Compatibility group (mixed with FPE)
[9] = Single group, 80 mg/L perfusion solution

SMILES	Cumulative Absorption Rate (%) 1 h (mean ± SD) [1, 8] [%]	Cumulative Absorption Rate (%) 3 h (mean ± SD) [1, 8] [%]	Cumulative Absorption Rate (%) 1 h (mean ± SD) [1, 9] [%]	Cumulative Absorption Rate (%) 3 h (mean ± SD) [1, 9] [%]	Hydrolysis by β-D-glucosidase ([2]; human intestinal anaerobe Eubacterium sp.A-44)	Stability, RSD (%) [3] [%]	Stability in K-R solution [3]	Absorption in the duodenum by concentration ([4]; GP at 78 mg/L compared with other concentrations)	Absorption in the duodenum versus other parts of the intestinal tract [4]	Hydrolysis by β-D-glucosidase [5]	Physical Adsorption RSD (%) [6] [%]	Concentration (mg/L) 3 h [6] [mg/L]	Stability in blank intestinal perfusion solution [7]	Stability, RSD (%) [7] [%]	Effect on NO production (NO production)	Intestinal absorption at 216 mg/L ([1]; GPA 216 mg/L in intestinal perfusion solution)	Hydrolysis by β-D-glucosidase [2]
COC(=O)C1=CO[C@@H](O[C@@H]2O[C@H](CO)[C@@H](O)[C@H](O)[C@H]2O)[C@@H]2C(CO)=CC[C@H]12 [GP, Geniposide]	0.139 ± 0.104	0.120 ± 0.063	0.059 ± 0.018	0.081 ± 0.017	can be hydrolyzed	1.32	stable	best absorption	better than other parts of the intestinal tract	cannot be hydrolyzed	0.57	92.34	stable	3.27	inhibited NO production		
O=C(O)C1=CO[C@@H](O[C@@H]2O[C@H](CO)[C@@H](O)[C@H](O)[C@H]2O)[C@@H]2C(CO)=CC[C@H]12 [GPA, geniposidic acid]	0.075 ± 0.015	0.105 ± 0.028	0.063 ± 0.040	0.136 ± 0.046		2.01	stable				1.32	114.68	stable	0.45		poor absorption	can hydolyse
